Source: patent publication US20180320217A1, “METHODS FOR SAMPLING AND MEASURING ORAL LAVAGE PROTEINS” (The Procter & Gamble Company, priority 2017, published 2018)
Where “and” joins values, the source holds several entries; their conditions need not be identical. Equal entries are not always repeated.

Key:
diaphorase [1] = assay: Formation of formazan dyes: NADH and diaphorase, absence of malate (TABLE 7); type: biochemical, Clostridium kluyveri
diaphorase [2] = assay: Formation of formazan dyes: NADH, diaphorase and malate (TABLE 8); type: biochemical, Clostridium kluyveri
[3] = test system: Malate dehydrogenase and diaphorase; assay: Formation of formazan dyes: Malate dehydrogenase and diaphorase, absence of malate (TABLE 9); type: biochemical, pig heart
[4] = test system: Malate dehydrogenase and diaphorase; assay: Formation of formazan dyes: Malate dehydrogenase, diaphorase and malate (TABLE 10); type: biochemical, pig heart
oral lavage [5] = assay: Formation of formazan dyes: oral lavage and diaphorase, not malate (TABLE 11); type: biochemical, human
oral lavage [6] = assay: Formation of formazan dyes: oral lavage, malate and diaphorase (TABLE 12); type: biochemical, human
[7] = Formation of formazan dyes: NADH and 1-methoxy PMS, absence of malate (TABLE 15); type: biochemical
oral lavage [8] = assay: Formation of formazan dyes: oral lavage and 1-Methoxy PMS, absence of malate (TABLE 19); type: biochemical, human
oral lavage [9] = assay: Formation of formazan dyes: oral lavage, malate and 1-Methoxy PMS (TABLE 20); type: biochemical, human
[10] = Formation of formazan dyes: control buffer and 1-Methoxy PMS, absence of malate (TABLE 21); type: biochemical
[11] = Formation of formazan dyes: control buffer, malate and 1-Methoxy PMS (TABLE 22); type: biochemical
Malate dehydrogenase = target: T1, Malate dehydrogenase (Sus scrofa, UniProt P00346); assay: Formation of formazan dyes: Malate dehydrogenase and 1-Methoxy PMS, absence of malate (TABLE 17); type: biochemical, pig heart; design: L-malate dehydrogenase (pig heart); purchased Sigma-Aldrich 10127248001 / 10127914001
T1 sequence (P00346 25-338): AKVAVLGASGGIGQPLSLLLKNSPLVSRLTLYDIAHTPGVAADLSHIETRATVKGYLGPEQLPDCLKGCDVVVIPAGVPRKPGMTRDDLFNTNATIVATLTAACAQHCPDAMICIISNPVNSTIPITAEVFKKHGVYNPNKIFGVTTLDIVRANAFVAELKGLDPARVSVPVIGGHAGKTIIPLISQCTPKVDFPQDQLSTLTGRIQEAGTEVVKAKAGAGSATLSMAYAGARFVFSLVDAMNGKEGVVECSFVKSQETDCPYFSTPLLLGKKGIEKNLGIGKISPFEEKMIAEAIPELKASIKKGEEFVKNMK

For COc1cc(-c2ccc(-n3nc(-c4ccccc4)n[n+]3-c3ccc([N+](=O)[O-])cc3)c(OC)c2)ccc1-n1nc(-c2ccccc2)n[n+]1-c1ccc([N+](=O)[O-])cc1 [Nitro-TB, 3,3′-[3,3′-Dimethoxy-(1,1′-biphenyl)-4,4′-diyl]-bis[2-(4-nitrophenyl)-5-phenyl-2H-tetrazolium chloride], the “Formation of formazan dyes, absorbance, Means 0 h” value (“Formation … Means 0 h” below) (diaphorase [1]) was 1.49, the “Formation of formazan dyes, absorbance, Means 1 h” value (from here on “Formation … Means 1 h”) (diaphorase [1]) was 1.71 and the “Formation of formazan dyes, absorbance, Means 2 h” value (shortened to “Formation … Means 2 h”) (diaphorase [1]) was 1.73. For the same compound, the “Formation of formazan dyes, absorbance, Means 3 h” value (“Formation … Means 3 h” below) (diaphorase [1]) was 1.71, the “Formation of formazan dyes, absorbance, Means 4 h” value (from here on “Formation … Means 4 h”) (diaphorase [1]) was 1.74 and the “Formation of formazan dyes, absorbance, Means 6 h” value (shortened to “Formation … Means 6 h”) (diaphorase [1]) was 1.86. For the same compound, the “Formation of formazan dyes, absorbance, Means 8 h” value (“Formation … Means 8 h” below) (diaphorase [1]) was 1.83, the “Formation of formazan dyes, absorbance, Means 10 h” value (from here on “Formation … Means 10 h”) (diaphorase [1]) was 1.85 and the “Formation of formazan dyes, absorbance, Means 12 h” value (“Formation … Means 12 h” below) (diaphorase [1]) was 1.82. The “Formation … Means 0 h” value (diaphorase [2]) was 1.03, the “Formation … Means 1 h” value (diaphorase [2]) was 1.15 and the “Formation … Means 2 h” value (diaphorase [2]) was 1.16. The “Formation … Means 3 h” value (diaphorase [2]) was 1.17, the “Formation … Means 4 h” value (diaphorase [2]) was 1.22 and the “Formation … Means 6 h” value (diaphorase [2]) was 1.27. For the same compound, the “Formation … Means 8 h” value (diaphorase [2]) was 1.33, the “Formation … Means 10 h” value (diaphorase [2]) was 1.37 and the “Formation … Means 12 h” value (diaphorase [2]) was 1.42. The “Formation … Means 0 h” value [3] was 0.15, the “Formation … Means 1 h” value [3] was 0.20 and the “Formation … Means 2 h” value [3] was 0.23. For the same compound, the “Formation … Means 3 h” value [3] was 0.25, the “Formation … Means 4 h” value [3] was 0.36 and the “Formation … Means 6 h” value [3] was 0.39. The “Formation … Means 8 h” value [3] was 0.40, the “Formation … Means 10 h” value [3] was 0.41 and the “Formation … Means 12 h” value [3] was 0.42. For the same compound, the “reduction of tetrazolium dye in the absence of substrate malate” value [3] was “remained largely in oxidized forms”, the “Formation … Means 0 h” value [4] was 0.56 and the “Formation … Means 1 h” value [4] was 0.88. The “Formation … Means 2 h” value [4] was 1.08, the “Formation … Means 3 h” value [4] was 1.23 and the “Formation … Means 4 h” value [4] was 1.46. The “Formation … Means 6 h” value [4] was 1.73, the “Formation … Means 8 h” value [4] was 1.95 and the “Formation … Means 10 h” value [4] was 2.16. For the same compound, the “Formation … Means 12 h” value [4] was 2.35, the “conversion to reduced formazan dyes” value [4] was “converted to reduced formazan dyes in a time-dependent manner” and the “Formation … Means 0 h” value (oral lavage [5]) was 0.56. The “Formation … Means 1 h” value (oral lavage [5]) was 0.79, the “Formation … Means 2 h” value (oral lavage [5]) was 0.85 and the “Formation … Means 3 h” value (oral lavage [5]) was 0.81. The “Formation … Means 4 h” value (oral lavage [5]) was 0.88, the “Formation … Means 6 h” value (oral lavage [5]) was 0.87 and the “Formation … Means 8 h” value (oral lavage [5]) was 0.88. For the same compound, the “Formation … Means 10 h” value (oral lavage [5]) was 0.86, the “Formation … Means 12 h” value (oral lavage [5]) was 0.87 and the “reduction to formazan dyes by pooled oral lavage” value (oral lavage [5]) was “changed to formazan dyes in a significant amount”. The “Formation … Means 0 h” value (oral lavage [6]) was 0.52, the “Formation … Means 1 h” value (oral lavage [6]) was 0.75 and the “Formation … Means 2 h” value (oral lavage [6]) was 0.80. For the same compound, the “Formation … Means 3 h” value (oral lavage [6]) was 0.75, the “Formation … Means 4 h” value (oral lavage [6]) was 0.88 and the “Formation … Means 6 h” value (oral lavage [6]) was 1.00. The “Formation … Means 8 h” value (oral lavage [6]) was 1.09, the “Formation … Means 10 h” value (oral lavage [6]) was 1.20 and the “Formation … Means 12 h” value (oral lavage [6]) was 1.30. The “formation of formazan dyes / precipitates with 1-methoxy PMS and NADH” value [7] was “formed precipitates”, the “Absorbance, formation of formazan dyes (Means)” value (shortened to “Absorbance, formation”) (oral lavage [8]) was 0.52 and 0.58 and 0.61 and 0.63 and 0.60 and 0.68 and 0.73 and 0.82 and the “Absorbance, formation” value (oral lavage [9]) was 0.35 and 0.37 and 0.40 and 0.43 and 0.29 and 0.30 and 0.31. The “Absorbance, formation” value [10] was 0.33 and 0.41 and 0.42 and 0.44 and 0.39 and 0.45 and 0.43, the “Means absorbance 0 h” value [11] was 0.16 and the “Means absorbance 1 h” value [11] was 0.16. The “Means absorbance 2 h” value [11] was 0.17, the “Means absorbance 3 h” value [11] was 0.19 and the “Means absorbance 4 h” value [11] was 0.19. The “Means absorbance 6 h” value [11] was 0.24, the “Means absorbance 8 h” value [11] was 0.29 and the “Means absorbance 10 h” value [11] was 0.18. For the same compound, the “Means absorbance 12 h” value [11] was 0.23 and the “Absorbance, formation” value (Malate dehydrogenase) was 0.31 and 0.40 and 0.39 and 0.35 and 0.36 and 0.32 and 0.41.
